Data as given in the PolyMetriX glass transition set.
± gives the standard deviation of the reports.

Row | SMILES | glass transition temperature [°C]
1 | *Oc1cccc(Oc2ccc3c(=O)n4c5cc(-c6ccc7c(c6)nc6c8ccc(*)c9cccc(c(=O)n76)c98)ccc5nc4c4cccc2c34)c1 (repeat unit) | 396.50
2 | *Oc1ccc(/N=C(\c2ccccc2)c2ccc(Oc3ccc(C(c4ccccc4)(c4ccccc4)c4ccc(Oc5ccc(/C(=N/c6ccc(*)cc6)c6ccccc6)cc5)cc4)cc3)cc2)cc1 (repeat unit) | 177.00
3 | *C(=O)c1ccc2c(c1)C(=O)N(c1ccc(/C=C/c3ccc(N4C(=O)c5ccc(*)cc5C4=O)cc3)cc1)C2=O (repeat unit) | 303.00
4 | *CCCCCCCCCCOC(=O)Nc1ccc(Cc2ccc(NC(=O)O*)cc2)cc1 (repeat unit) | 60.00
5 | *c1cccc(P(=O)(c2ccccc2)c2cccc(N3C(=O)c4ccc(NC(=O)OCCOc5ccc(C(c6ccc(OCCOC(=O)Nc7ccc8c(c7)C(=O)N(*)C8=O)cc6)(C(F)(F)F)C(F)(F)F)cc5)cc4C3=O)c2)c1 (repeat unit) | 214.00
6 | */N=N/c1ccc(Nc2ccc(C(=O)c3ccc(Nc4ccc(*)cc4)cc3)cc2)cc1 (repeat unit) | 216.42
7 | *CC(*)(C)C(=O)OCCC(C)(C)C (repeat unit) [Poly(3,3-dimethylbutyl methacrylate)] | 45 ± 1.2
8 | *c1ccc2c(c1)C(=O)N(c1cc(C(c3ccc(O)c(N4C(=O)c5ccc(C(*)(C(F)(F)F)C(F)(F)F)cc5C4=O)c3)(C(F)(F)F)C(F)(F)F)ccc1O)C2=O (repeat unit) | 330.00
9 | *Nc1ccc(-c2ccc(NC(=O)c3cccc(C(*)=O)c3)c(S)c2)cc1S (repeat unit) | 395.00
10 | *Oc1ccc(S(=O)(=O)c2ccc(Oc3ccc(NC(=O)c4cc(NC(=O)c5ccc(OC(C)=O)cc5)cc(C(=O)Nc5ccc(*)cc5)c4)cc3)cc2)cc1 (repeat unit) | 263.00
11 | *OC(=O)c1ccc(C(=O)OC2COC3C(*)COC23)o1 (repeat unit) | 192.50
12 | *CCCCCCc1ccc(-c2c(-c3ccccc3)cc(-c3ccc(-c4cc(-c5ccccc5)c(-c5ccc(*)cc5)c(-c5ccccc5)c4-c4ccccc4)cc3)c(-c3ccccc3)c2-c2ccccc2)cc1 (repeat unit) | 250.00
13 | *Oc1ccccc1C(=O)OC(=O)c1ccccc1OC(=O)C(C)C(C)C(*)=O (repeat unit) | 45.00
14 | *Oc1ccc(C2(c3ccc(OC(*)=S)cc3)CCCCC2)cc1 (repeat unit) | 155.00
15 | *Oc1cccc(NC(=O)CCCCCCCCCC(=O)Nc2ccc(*)cc2)c1 (repeat unit) | 110.00
16 | *CC(*)Cc1ccccc1 (repeat unit) | 70.00
17 | *C(=O)c1ccc2c(c1)C(=O)N(c1ccc(Oc3ccc(C(=O)c4cccc(C(=O)c5ccc(Oc6ccc(N7C(=O)c8ccc(*)cc8C7=O)cc6C(F)(F)F)cc5)n4)cc3)c(C(F)(F)F)c1)C2=O (repeat unit) | 225.20
18 | *Oc1ccc(S(=O)(=O)c2ccc(Oc3ccc(/C=C4\CC/C(=C\c5ccc(*)cc5)C4=O)cc3)cc2)cc1 (repeat unit) | 235.00
19 | *CC(C)(C)C1C(=O)N(c2ccccc2C)C(=O)C1* (repeat unit) | 207.00
20 | *Oc1ccc(-c2ccc(Oc3ccc(Oc4cc(Oc5ccc(*)cc5)ccc4CCCCCC)cc3)c3ccccc23)c2ccccc12 (repeat unit) | 150.00
21 | *Oc1ccc(C2(c3ccc(OC(=O)c4ccc(C(*)=O)cc4)cc3)CCC(C(C)(C)C)CC2)cc1 (repeat unit) | 210.00

Row | SMILES | glass transition temperature [°C]
22 | *OC1CCC(OC(=O)OCCCCCCCOC(*)=O)CC1 (repeat unit) | -5.00
23 | *c1ccc(Oc2ccc(Oc3ccc(-c4cnc5cc(-c6ccc7nc(*)cnc7c6)ccc5n4)cc3)cc2)cc1 (repeat unit) | 195.00
24 | *CCCNC(=O)C(Cc1ccccc1)NC(=O)CCCCCCCCC(=O)NC(Cc1ccccc1)C(=O)NCCCOCCOCCO* (repeat unit) | 44.00
25 | *c1ccc2c(c1)C(=O)N(c1ccc(C(c3ccc(N4C(=O)c5ccc(C(*)(C(F)(F)F)C(F)(F)F)cc5C4=O)cc3)(C(F)(F)F)C(F)(F)F)cc1)C2=O (repeat unit) | 315.10
26 | *Oc1ccc(-c2ccc(OC(=O)CCCCCCCCCCCCC(*)=O)cc2)cc1 (repeat unit) | 95.00
27 | *c1cc(-c2sc(-c3cc(CCCCCCCCCCCCCC)c(*)s3)cc2CCCCCCCCCCCCCC)c2cccccc1-2 (repeat unit) | -10.00
28 | *c1ccc2c(c1)C(=O)N(c1cccc(P(=O)(c3ccc(Oc4ccc(C56CC7CC(CC(C7)C5)C6)cc4)cc3)c3cccc(N4C(=O)c5ccc(C(*)(C(F)(F)F)C(F)(F)F)cc5C4=O)c3)c1)C2=O (repeat unit) | 298.00
29 | *C1C(=O)N(c2ccc(O[Si](CC)(CC)CC)cc2)C(=O)C1* (repeat unit) | 165.00
30 | *Oc1ccc(OC(C)COCCCCCCCOc2ccc(-c3ccc(C(*)=O)cc3)cc2)c([N+](=O)[O-])c1 (repeat unit) | 50.00
31 | *CCCCC(=O)NCc1ccc(CNC(=O)CCCCS*)cc1 (repeat unit) | 70.00
32 | *CCCCCNC(=S)N* (repeat unit) | 55.00
33 | *CC(O)COc1ccc(C(C)(C)c2ccc(OCC(O)COc3ccc(NC(=O)CCCC(=O)Nc4ccc(O*)cc4)cc3)cc2)cc1 (repeat unit) | 105.00
34 | *CC(*)(C#N)C(=O)OC (repeat unit) | 147.50
35 | *C(=O)Nc1cccc(N2C(=O)CC(N3C(=O)c4ccc(*)cc4C3=O)C2=O)c1 (repeat unit) | 130.00
36 | *Oc1ccc(S(=O)(=O)c2ccc(Oc3ccc(C(c4ccc(*)cc4)c4ccccc4C(=O)O)cc3)cc2)cc1 (repeat unit) | 223.00
37 | *O[Si](*)(C)CCCCCCCCCCC(F)(F)C(F)(F)C(F)(F)C(F)(F)C(F)(F)C(F)(F)C(F)(F)C(F)(F)F (repeat unit) | -78.00
38 | *C(=O)Oc1ccc(C(=O)Oc2cccc(OC(=O)c3ccc(OC(=O)c4ccc(*)nc4)cc3)c2)cc1 (repeat unit) | 110.00
39 | */C=C/C1CC(*)C(C#N)C1 (repeat unit) | 140.00
40 | *Oc1ccc(CC(NC(=O)CCc2ccc(OC(=O)COCCOCC(*)=O)cc2)C(=O)OC(C)CC)cc1 (repeat unit) | 44.00
41 | *C([2H])([2H])C(*)([2H])c1c([2H])c([2H])c([2H])c([2H])c1[2H] (repeat unit) | 97.00
42 | *Oc1ccc(S(=O)(=O)c2ccc(Oc3c(C)cc(C(C)(C)c4cc(C)c(*)c(C)c4Br)c(Br)c3C)cc2)cc1 (repeat unit) | 275.40

Row | SMILES | glass transition temperature [°C]
43 | *Cc1ccc(COP(=O)(/N=N/c2ccc(Oc3ccc(/N=N/P(=O)(O*)OC)cc3)cc2)OC)cc1 (repeat unit) | 50.00
44 | *CC(*)c1cc(C(=O)Oc2ccc(OCCCC)cc2)ccc1C(=O)Oc1ccc(OCCCC)cc1 (repeat unit) | 103.60
45 | *CCCCCCCCOC(=O)c1cccc(C(=O)O*)c1 (repeat unit) | -9.00
46 | *CCC1C(=O)N(CCCCCCCCCCCC)C(=O)C1* (repeat unit) | 55.40
47 | *CC(*)(C)C(=O)Oc1ccccc1 (repeat unit) | 110.00
48 | *c1ccc(Cc2ccc(N3C(=O)c4ccc([Si](C)(C)O[Si](C)(C)c5ccc6c(c5)C(=O)N(*)C6=O)cc4C3=O)cc2)cc1 (repeat unit) | 232.00
49 | *c1ccc(CC(=O)Nc2ccc(Cc3ccc(NC(=O)Cc4ccc(-c5sc(*)c(-c6ccccc6)c5-c5ccccc5)cc4)cc3)cc2)cc1 (repeat unit) | 227.00
50 | *c1ccc2c(c1)C(=O)N(c1ccc(NC(=O)C(F)(F)C(F)(F)C(F)(F)C(F)(F)C(F)(F)C(F)(F)C(=O)Nc3ccc(N4C(=O)c5ccc(C(*)(C(F)(F)F)C(F)(F)F)cc5C4=O)cc3)cc1)C2=O (repeat unit) | 265.00
51 | *Oc1ccc(C(=O)c2ccccc2)c(-c2cc(Oc3ccc(C(C)(C)c4ccc(*)cc4)cc3)ccc2C(=O)c2ccccc2)c1 (repeat unit) | 156.00
52 | *Oc1ccc(CC(NC(=O)CCc2ccc(OC(=O)CC(C)CCC(*)=O)cc2)C(=O)OCCCC)cc1 (repeat unit) | 35.00
53 | *C(=O)c1ccc2c(c1)C(=O)N(c1c(C)cc(C(c3cccc(C(F)(F)F)c3)c3cc(C)c(N4C(=O)c5ccc(*)cc5C4=O)c(C)c3)cc1C)C2=O (repeat unit) | 285.00
54 | *CC(O)COc1ccc(C(C)(C)c2ccc(OCC(O)COc3cccc(NC(=O)Cc4cccc(CC(=O)Nc5cccc(O*)c5)c4)c3)cc2)cc1 (repeat unit) | 119.00
55 | *c1cccc(NC(=O)c2ccc(OCCOc3ccc(C(=O)Nc4ccc5[nH]c(*)nc5c4)cc3)cc2)c1 (repeat unit) | 250.00
56 | *OC(=O)C(NC(=O)CCCCCCCCC(=O)NC(C(=O)OC1COC2C(*)COC12)C(C)CC)C(C)CC (repeat unit) | 91.00
57 | *C(=O)c1ccc2c(c1)C(=O)N(c1ccc(Oc3ccc(C(=O)c4cccc(C(=O)c5ccc(Oc6ccc(N7C(=O)c8ccc(*)cc8C7=O)cc6)cc5)c4)cc3)cc1)C2=O (repeat unit) | 222.00
58 | *Oc1cc(Oc2ccc(C(C)(C)c3ccc(*)cc3)cc2)cc(C(=O)Oc2ccc(/N=N/c3ccc(C#N)cc3)cc2)c1 (repeat unit) | 163.00
59 | *CC(F)(F)C1(F)C(*)CC(O)(C(F)(F)F)C1(F)F (repeat unit) | 152.00
60 | *CCCCCCCCCCc1ccc(-c2c(-c3ccccc3)cc(-c3ccc(-c4cc(-c5ccccc5)c(-c5ccc(*)cc5)c(-c5ccccc5)c4-c4ccccc4)cc3)c(-c3ccccc3)c2-c2ccccc2)cc1 (repeat unit) | 235.00
61 | *C(=O)c1ccc(Oc2ccc(C(C)(C)c3ccc(Oc4ccc(*)s4)cc3)cc2)s1 (repeat unit) | 124.00
62 | *c1cccc(NC(=O)CCCCCCCCCCC(=O)Nc2cccc(S(*)(=O)=O)c2)c1 (repeat unit) | 107.00
